According to PubChem BioAssay AID248 (DTP/NCI, 2004):
Values joined by “and” are separate entries in the source; they are usually repeats but may differ in a detail not shown here. Equal entries are not always repeated. Inconclusive results and toxic doses are left out.

System: L1210 leukemia ip in BDF1 mice, survival T/C
Test: NCI In Vivo Anticancer Drug Screen. Data for tumor model L1210 Leukemia (intraperitoneal) in B6D2F1 (BDF1) mice
Conditions: endpoint: mean survival time, higher = longer survival
Outline: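 Each compound was tested against a transplantable tumor grown in mice. The endpoint was survival, with treated animals benchmarked against vehicle controls as a simple ratio.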

[1] = dose: 100.0 mg/kg/injection, schedule: Q04DX002 (ip), vehicle: Klucel (hydroxypropylcellulose) (HPC)
[2] = dose: 200.0 mg/kg/injection, schedule: Q04DX002 (ip), vehicle: Klucel (hydroxypropylcellulose) (HPC)
[3] = dose: 400.0 mg/kg/injection, schedule: Q04DX002 (ip), vehicle: Klucel (hydroxypropylcellulose) (HPC)

Q: Which results are given for `CCCOC1=C(N2CC2)C(=O)C(OCCC)=C(N2CC2)C1=O`?
A: T/C (dose: 0.23 mg/kg/injection, schedule: Q01DX009 (ip), vehicle: Klucel (hydroxypropylcellulose) (HPC)): 103 % of control; T/C (dose: 0.46 mg/kg/injection, schedule: Q01DX009 (ip), vehicle: Klucel (hydroxypropylcellulose) (HPC)): 107 % of control; T/C (dose: 0.62 mg/kg/injection, schedule: Q#A X Z (ip), vehicle: alkali diluted with saline): 113 % of control; T/C (dose: 0.93 mg/kg/injection, schedule: Q01DX009 (ip), vehicle: Klucel (hydroxypropylcellulose) (HPC)): 108 % of control; T/C (dose: 1.25 mg/kg/injection, schedule: Q01DX006 (iv), vehicle: alkali diluted with saline): 113 % of control; T/C (dose: 1.25 mg/kg/injection, schedule: Q01DX Z (im), vehicle: alkali diluted with saline): 113 % of control; T/C (dose: 1.25 mg/kg/injection, schedule: Q01DX Z (ip), vehicle: alkali diluted with saline): 104 % of control; T/C (dose: 1.25 mg/kg/injection, schedule: Q01DX Z (sc), vehicle: alkali diluted with saline): 113 % of control; T/C (dose: 1.25 mg/kg/injection, schedule: Q#A X Z (ip), vehicle: alkali diluted with saline): 121 % of control; T/C (dose: 1.87 mg/kg/injection, schedule: Q01DX009 (ip), vehicle: Klucel (hydroxypropylcellulose) (HPC)): 114 % of control; T/C (dose: 1.87 mg/kg/injection, schedule: Q04DX003 (ip), vehicle: Klucel (hydroxypropylcellulose) (HPC)): 106 % of control; T/C (dose: 2.5 mg/kg/injection, schedule: Q01DX006 (iv), vehicle: alkali diluted with saline): 109 % of control; T/C (dose: 2.5 mg/kg/injection, schedule: Q01DX Z (im), vehicle: alkali diluted with saline): 122 % of control; T/C (dose: 2.5 mg/kg/injection, schedule: Q01DX Z (sc), vehicle: alkali diluted with saline): 110 % of control; T/C (dose: 3.0 mg/kg/injection, schedule: Q03DX006 (ip), vehicle: alkali diluted with saline): 107 % of control; T/C (dose: 3.75 mg/kg/injection, schedule: Q01DX009 (ip), vehicle: Klucel (hydroxypropylcellulose) (HPC)): 122 % of control; T/C (dose: 3.75 mg/kg/injection, schedule: Q04DX003 (ip), vehicle: Klucel (hydroxypropylcellulose) (HPC)): 118 % of control; T/C (dose: 5.0 mg/kg/injection, schedule: Q01DX006 (iv), vehicle: alkali diluted with saline): 122 % of control; T/C (dose: 5.0 mg/kg/injection, schedule: Q01DX Z (oral), vehicle: alkali diluted with saline): 113 % of control; T/C (dose: 5.0 mg/kg/injection, schedule: Q#A X Z (ip), vehicle: alkali diluted with saline): 158 % of control; T/C (dose: 7.0 mg/kg/injection, schedule: Q03DX006 (ip), vehicle: alkali diluted with saline): 115 % of control; T/C (dose: 10.0 mg/kg/injection, schedule: Q01DX001 (ip), vehicle: alkali diluted with saline): 112 % of control; T/C (dose: 10.0 mg/kg/injection, schedule: Q01DX006 (iv), vehicle: alkali diluted with saline): 115 % of control; T/C (dose: 10.0 mg/kg/injection, schedule: Q01DX Z (im), vehicle: alkali diluted with saline): 163 % of control; T/C (dose: 10.0 mg/kg/injection, schedule: Q01DX Z (oral), vehicle: alkali diluted with saline): 115 % of control; T/C (dose: 10.0 mg/kg/injection, schedule: Q07DX003 (ip), vehicle: alkali diluted with saline): 96 % of control; T/C (dose: 15.0 mg/kg/injection, schedule: Q03DX006 (ip), vehicle: alkali diluted with saline): 153 % of control; T/C (dose: 20.0 mg/kg/injection, schedule: Q01DX001 (ip), vehicle: alkali diluted with saline): 104 % of control and 115 % of control; T/C (dose: 20.0 mg/kg/injection, schedule: Q01DX006 (iv), vehicle: alkali diluted with saline): 103 % of control; T/C (dose: 20.0 mg/kg/injection, schedule: Q01DX Z (im), vehicle: alkali diluted with saline): 94 % of control; T/C (dose: 20.0 mg/kg/injection, schedule: Q01DX Z (sc), vehicle: alkali diluted with saline): 120 % of control; T/C (dose: 20.0 mg/kg/injection, schedule: Q07DX003 (ip), vehicle: alkali diluted with saline): 106 % of control; T/C (dose: 20.0 mg/kg/injection, schedule: Q#A X Z (ip), vehicle: alkali diluted with saline): 103 % of control; T/C (dose: 30.0 mg/kg/injection, schedule: Q03DX006 (ip), vehicle: alkali diluted with saline): 117 % of control; T/C (dose: 30.0 mg/kg/injection, schedule: Q04DX003 (ip), vehicle: Klucel (hydroxypropylcellulose) (HPC)): 102 % of control; T/C (dose: 40.0 mg/kg/injection, schedule: Q01DX001 (ip), vehicle: alkali diluted with saline): 118 % of control; T/C (dose: 40.0 mg/kg/injection, schedule: Q01DX006 (iv), vehicle: alkali diluted with saline): 123 % of control; T/C (dose: 40.0 mg/kg/injection, schedule: Q01DX Z (im), vehicle: alkali diluted with saline): 121 % of control; T/C (dose: 40.0 mg/kg/injection, schedule: Q01DX Z (ip), vehicle: alkali diluted with saline): 106 % of control; T/C (dose: 40.0 mg/kg/injection, schedule: Q01DX Z (sc), vehicle: alkali diluted with saline): 113 % of control; T/C (dose: 40.0 mg/kg/injection, schedule: Q07DX003 (ip), vehicle: alkali diluted with saline): 124 % of control; T/C (dose: 80.0 mg/kg/injection, schedule: Q01DX001 (ip), vehicle: alkali diluted with saline): 124 % of control; T/C (dose: 80.0 mg/kg/injection, schedule: Q01DX Z (oral), vehicle: alkali diluted with saline): 122 % of control; T/C (dose: 125.0 mg/kg/injection, schedule: Q01DX001 (ip), vehicle: alkali diluted with saline): 103 % of control; T/C (dose: 160.0 mg/kg/injection, schedule: Q01DX001 (ip), vehicle: alkali diluted with saline): 115 % of control and 121 % of control; T/C (dose: 160.0 mg/kg/injection, schedule: Q07DX003 (ip), vehicle: alkali diluted with saline): 111 % of control; T/C (dose: 320.0 mg/kg/injection, schedule: Q01DX001 (ip), vehicle: alkali diluted with saline): 107 % of control and 113 % of control; T/C (dose: 320.0 mg/kg/injection, schedule: Q07DX003 (ip), vehicle: alkali diluted with saline): 111 % of control; T/C (dose: 500.0 mg/kg/injection, schedule: Q01DX001 (ip), vehicle: alkali diluted with saline): 102 % of control; T/C (dose: 640.0 mg/kg/injection, schedule: Q07DX003 (ip), vehicle: alkali diluted with saline): 123 % of control; T/C (dose: 1000.0 mg/kg/injection, schedule: Q01DX001 (ip), vehicle: alkali diluted with saline): 106 % of control

Q: What does the source list for `Cc1nc(-c2ccccc2)no1`?
A: T/C (dose: 75.0 mg/kg/injection, schedule: Q01DX009 (ip), vehicle: Klucel (hydroxypropylcellulose) (HPC)): 102 % of control; T/C [1]: 97 % of control; T/C (dose: 150.0 mg/kg/injection, schedule: Q01DX009 (ip), vehicle: Klucel (hydroxypropylcellulose) (HPC)): 98 % of control; T/C [2]: 102 % of control; T/C (dose: 300.0 mg/kg/injection, schedule: Q01DX009 (ip), vehicle: Klucel (hydroxypropylcellulose) (HPC)): 101 % of control; T/C [3]: 97 % of control

Q: Which results are given for `COP(=O)(OC)/C(=N\NS(=O)(=O)c1ccc(C)cc1)c1ccccc1`?
A: T/C (dose: 100.0 mg/kg/injection, schedule: Q04DX003 (ip), vehicle: Klucel (hydroxypropylcellulose) (HPC)): 94 % of control; T/C (dose: 200.0 mg/kg/injection, schedule: Q04DX003 (ip), vehicle: Klucel (hydroxypropylcellulose) (HPC)): 101 % of control; T/C (dose: 400.0 mg/kg/injection, schedule: Q04DX003 (ip), vehicle: Klucel (hydroxypropylcellulose) (HPC)): 94 % of control

Q: Which results are given for `CC(=O)/C=C/c1ccc([N+](=O)[O-])o1`?
A: T/C (dose: 100.0 mg/kg/injection, schedule: Q01DX001 (ip), vehicle: Klucel (hydroxypropylcellulose) (HPC)): 116 % of control; T/C (dose: 200.0 mg/kg/injection, schedule: Q01DX001 (ip), vehicle: Klucel (hydroxypropylcellulose) (HPC)): 121 % of control

Q: Which T/C (dose: 100.0 mg/kg/injection, schedule: Q01DX001 (ip), vehicle: carboxymethylcellulose (CMC)) does the source give for `Cc1nnc(NS(=O)(=O)c2ccc(N=Nc3cc(N=Nc4ccccc4)c(N)nc3N)cc2)s1` here?
A: The T/C was 87 % of control.

Q: And the T/C (dose: 200.0 mg/kg/injection, schedule: Q01DX001 (ip), vehicle: carboxymethylcellulose (CMC))?
A: Its T/C is 89 % of control.

Q: And the T/C (dose: 400.0 mg/kg/injection, schedule: Q01DX001 (ip), vehicle: carboxymethylcellulose (CMC))?
A: Its T/C is 97 % of control.

Q: For `C=CC(C)(O)CCC1C(=C)C(O)CC2C(C)(C)CCCC12C` (configuration not stated), which T/C (dose: 100.0 mg/kg/injection, schedule: Q01DX009 (ip), vehicle: saline) is on record?
A: The T/C was 100 % of control.

Q: What about the T/C (dose: 100.0 mg/kg/injection, schedule: Q04DX003 (ip), vehicle: saline) of the same molecule?
A: The T/C was 105 % of control.

Q: What about the T/C (dose: 200.0 mg/kg/injection, schedule: Q01DX009 (ip), vehicle: saline) of the same molecule?
A: The T/C was 100 % of control.

Q: What about the T/C (dose: 200.0 mg/kg/injection, schedule: Q04DX003 (ip), vehicle: saline) of the same molecule?
A: Its T/C is 95 % of control.

Q: And the T/C (dose: 400.0 mg/kg/injection, schedule: Q01DX009 (ip), vehicle: saline)?
A: Its T/C is 94 % of control.

Q: What about the T/C (dose: 400.0 mg/kg/injection, schedule: Q04DX003 (ip), vehicle: saline) of the same molecule?
A: Its T/C is 90 % of control.

Q: Which T/C [1] does the source give for `Cc1cc([N+](=O)[O-])ccc1NC(=O)OCc1ccccc1` here?
A: Its T/C is 99 % of control.

Q: What about the T/C [2] of the same molecule?
A: The T/C was 101 % of control.

Q: What about the T/C [3] of the same molecule?
A: Its T/C is 89 % of control.

Q: What does the source list for `OCCOC1CCCC=C1Cl` (configuration not stated)?
A: T/C (dose: 100.0 mg/kg/injection, schedule: Q01DX001 (ip), vehicle: acetone): 95 % of control; T/C (dose: 200.0 mg/kg/injection, schedule: Q01DX001 (ip), vehicle: acetone): 98 % of control; T/C (dose: 400.0 mg/kg/injection, schedule: Q01DX001 (ip), vehicle: acetone): 91 % of control
